Assay results: US20130023569A1, “Use of Deferiprone for Treatment and Prevention of Iron-Related Eye Disorders” (THE TRUSTEES OF THE UNIVERSITY OF PENNSYLVANIA, priority 2009, published 2013)

Assays:
[1] = system: Cp/Heph double knockout (DKO) mice; experiment: Retinal histology of Cp/Heph DKO mice given oral deferiprone in drinking water; format: in vivo, mouse
Excerpt: (§1) In the following examples, double knockout (DKO) mice were used where the mice were genetically modified to generate a deficiency in the ferroxidase ceruloplasmin (Cp) and its homologue hephaestin (Heph). These mice develop age-related retinal degeneration due to retinal iron accumulation, as do humans. Since the knockout affects all tissues and organs, they also develop other symptoms of localized iron excess, with a simultaneous inability to adequately utilize the available iron for normal homeostasis, such as making new hemoglobin (they have low hematocrits). These animals also develop neurological deficits, including ataxia and die at an early age, typically 6-9 months, although some may survive to 12 or 13 months with significant impaired ability to function The retinas of these Cp/Heph deficient mice accumulate iron in the RPE and photoreceptor outer segments in an age-dependent manner, then develop RPE and photoreceptor degeneration with subretinal neovascularization and sub-RPE wide-spaced collagen deposits. Cp/Heph DKO mice develop retinal, brain, liver, and heart iron overload with iron deficiency anemia. In untreated DKOs, iron gets trapped in the tissues and is not returned to the blood, leading to iron deficiency anemia. There is an age-dependent tissue iron buildup with retinal and brain degeneration.
(§2) Eye Drop Administration: Beginning at age 5 months (when elevated retinal iron levels are detected), mice were given deferiprone eye drops (10 mg/ml) three times a day in one eye and control water eye drops in the other eye for two months, with the last drop given 2 h prior to sacrifice. Eyes were fixed in 2% paraformaldehyde/2% glutaraldehyde then sectioned for analysis of morphology (following staining with Toluidine Blue) and iron content (following staining with Perls' Prussian Blue). The number and length of retinal pigment epithelial (RPE) cell hypertrophy and photoreceptor atrophy areas were quantified in deferiprone-treated vs. water-treated control eyes. The intensity of Perls' stain in the ciliary body, retina and RPE were assessed in digital photomicrographs quantifying pixel density.
Oral Administration: DKO mice were given deferiprone in their drinking water at a concentration of (1 mg/ml). The mice typically drink 5 ml of water a day and weigh 30 g. Mice began drinking deferiprone/water at age 7 months since that is the time such mice normally develop the retinal changes consistent with AMD. The animals were sacrificed at various time points that are known to represent significant retinal and neurological damage in untreated animals and the eyes of sacrificed animals were analyzed as noted above.

[2] = system: transferrin Receptor (TfR) mRNA; experiment: TfR mRNA by qPCR in retina and RPE/choroid of wild type mice, oral deferiprone; format: in vivo, mouse; settings: 1 mg/ml in drinking water PO for 11 days, n=4, vs untreated
Procedure: FIG. 2 is two graphs showing relative quantification of transferrin Receptor (TfR) mRNA levels in the retinas and retinal pigment epithelia (RPE)/choroids of deferiprone treated and untreated wild type mice in retinas (FIG. 2A) and in RPE/choroids (FIG. 2B). The treated mice (n=4) were given deferiprone for 11 days PO (1 mg/ml in the drinking water). […] Relative quantification of TfR expression is also shown for the RPE/choroids (See FIG. 2B) of treated in comparison to untreated animals.

[3] = system: transferrin receptor messenger ribonucleic acid (TfR mRNA); experiment: TfR mRNA by qPCR in RPE/choroid after deferiprone eye drops; format: in vivo, mouse; settings: eye drops 10 mg/ml three times a day for two months, right eye treated vs left eye control
Procedure: FIG. 3 is a graph illustrating the amount of transferrin receptor messenger ribonucleic acid (TfR mRNA) in the RPE/choroid from a treated eye and an untreated eye. The error bars represent SD of 3 PCR reactions using the same batch of mRNA template.
as §2
The mouse had the right eye (OD) treated with deferiprone topically (in the form of the eye drops, 10 mg/ml) three times a day for two months, whereas the left eye (OS) was used as an internal control. The last administration was given 2 h prior to sacrifice. Relative quantification of TfR mRNA was detected by qPCR. […]

retinal iron = experiment: Perls' stain of retinal iron in DKO mice, oral deferiprone; format: in vivo; settings: 13 month old DKO mouse, PO 1 mg/ml in drinking water for 9 months, vs untreated DKO
Excerpt: FIG. 4 illustrates three Perls' stains of 7 and 13 month old untreated DKO mice retinas (FIGS. 4A and 4B, respectively) and of a treated 13 month old DKO mouse (FIG. 4C). The following abbreviations appear in the Figures: RPE, retinal pigment epithelium; ONL, outer nuclear layer; OPL, outer plexiform layer; IPL, inner plexiform layer; GCL, ganglion cell layer. Scale bar: 50 μm.
as §2, with “Eyes were fixed in 2% paraformaldehyde/2% glutaraldehyde then sectioned for analysis of morphology (following staining with Toluidine Blue) and iron content (following staining with Perls' Prussian Blue).” left out
(§3) Oral Administration: DKO mice were given deferiprone in their drinking water at a concentration of (1 mg/ml). […] The animals were sacrificed at various time points that are known to represent significant retinal and neurological damage in untreated animals and the eyes of sacrificed animals were analyzed as noted above. […]

[4] = Hematocrit in DKO mice, oral deferiprone; format: in vivo, mouse
Excerpt: as §1, with “Cp/Heph DKO mice develop retinal, brain, liver, and heart iron overload with iron deficiency anemia. In untreated DKOs, iron gets trapped in the tissues and is not returned to the blood, leading to iron deficiency anemia. There is an age-dependent tissue iron buildup with retinal and brain degeneration.” left out
as §3

[5] = system: Cp/Heph double knockout (DKO) mice; experiment: Survival (Kaplan-Meier) and ataxia of DKO mice, oral deferiprone; format: in vivo, mouse
Excerpt: FIG. 7 is a Kaplan-Meier survival curve for deferiprone treated and untreated DKO mice.
In the following examples, double knockout (DKO) mice were used where the mice were genetically modified to generate a deficiency in the ferroxidase ceruloplasmin (Cp) and its homologue hephaestin (Heph). These mice develop age-related retinal degeneration due to retinal iron accumulation, as do humans. Since the knockout affects all tissues and organs, they also develop other symptoms of localized iron excess, with a simultaneous inability to adequately utilize the available iron for normal homeostasis, such as making new hemoglobin (they have low hematocrits). […]
Oral Administration: DKO mice were given deferiprone in their drinking water at a concentration of (1 mg/ml). […] The animals were sacrificed at various time points that are known to represent significant retinal and neurological damage in untreated animals and the eyes of sacrificed animals were analyzed as noted above.
(P<0.0001). The lifespan of the treated animals is an under-estimate, as these mice were sacrificed for iron quantification before they became sick. […]

[6] = system: eye of Hra:(NZW)SPF rabbits; experiment: Sensitivity testing of eye drops: ocular irritation/corrosion (Draize, sodium fluorescein); format: in vivo, rabbit
Procedure: The ocular irritation/corrosion potential of the product was assessed by instilling approximately 0.1 mL at a concentration of about 13 mg/mL into the everted lower lid of the right eye of 3 male Hra:(NZW)SPF rabbits; the left eye served as the untreated control. Approximately 24 hours after instillation, the treated eyes were examined for corneal injury and washed using room-temperature physiological saline.

[7] = cited from earlier work

## Cc1c(O)c(=O)ccn1C [deferiprone]
[1]; 14 month Cp/Heph knockout, oral deferiprone for 5 months, FIG. 1
  retina appearance (toluidine blue plastic sections): appears normal except for a few mildly hypertrophic RPE cells
[1]; DKO mice 12-14 months old, deferiprone 1 mg/ml in drinking water for 5-7 months
  retinal degeneration and damage: almost no retinal degeneration and damage
[1]; DKO mice, deferiprone 1 mg/ml PO in drinking water for 6-9 months, FIG. 5
  retinal tissue histology: near normal tissue
[1]; most severely affected regions, DKO mice, deferiprone 1 mg/ml PO for 6-9 months, untreated more than 90%
  areas of RPE hypertrophy, share of the retina involved: < 10%
[2]
  TfR mRNA levels in retinas (relative quantification, standardized to 18S RNA): significant up regulation of TfR mRNA levels
[2]; P<0.05
  TfR expression in RPE/choroids (relative quantification): significant difference
[3]
  TfR mRNA in RPE/choroid (relative quantification): siqnificant TfR mRNA increase
Retinal iron
  retinal iron (Perls' stain): decreased retinal iron
[4]; deferiprone-treated DKO mice n=7, untreated mean 24.6%, P<0.05
  hematocrit, mean value: 36.7%
[4]; treated DKO mice 12 and 14 months old, 1 mg/ml in drinking water 5-7 months, untreated 19-26%
  hematocrit at time of sacrifice: 30-50%
[5]; DKO mice, 1 mg/ml in drinking water, 2 mice at 14 months and 2 at 12 months
  ataxia: some mild ataxia
[5]; treated DKO mice, LogRank test, untreated 7 months, P<0.0001
  median survival: 13 months
[6]; 0.1 mL of about 13 mg/mL into right eye of 3 male rabbits, 1, 24, 48 and 72 hours after instillation
  eye irritation, Draize score: 0
[6]; about 24 hours post dose, about 13 mg/mL, rabbits
  corneal injury, sodium fluorescein test: no injury to the cornea
[7]; humans
  half life: about 2 hours
[7]; thalassemia patients, oral doses 75 to 100 mg/kg/day
  agranulocytosis, share of patients: about 1%
